Laboratory results as given in PMC7345279 (Antibiotics, 2020).
Values joined by “and” are separate entries in the source; they are usually repeats but may differ in a detail not shown here. Equal values may be shown once. Read-outs that look alike come from different tables or passages of the source.

Key:
plasma proteins = conditions: cited from earlier work
[1] = system: α-1-acid glycoprotein (AGP); experiment: Binding of FLU to AGP solutions (0.9 and […]), alone and with IMA (ultrafiltration, LC-MS/MS); conditions: for % Unb / Total conc / Unb Conc: alone
HSA = HSA (Homo sapiens, UniProt P02768); experiment: Binding of FLU to HSA solutions (40 and 25 g/L), alone and with anticancer agents (ultrafiltration, LC-MS/MS); conditions: for % Unb / Total conc / Unb Conc: alone
[2] = Unbound fraction / protein binding of FLU in pooled plasma, alone and with a second drug (ultrafiltration, LC-MS/MS); conditions: human, plasma
human plasma proteins = experiment: as above; conditions: for FLU bound %: Pooled Plasma; for %Unbound / Measured Unbound Conc in Plasma / Measured Total Conc in Plasma: pooled plasma, alone, listed as FLU alone

Sequence of HSA (P02768 25-609): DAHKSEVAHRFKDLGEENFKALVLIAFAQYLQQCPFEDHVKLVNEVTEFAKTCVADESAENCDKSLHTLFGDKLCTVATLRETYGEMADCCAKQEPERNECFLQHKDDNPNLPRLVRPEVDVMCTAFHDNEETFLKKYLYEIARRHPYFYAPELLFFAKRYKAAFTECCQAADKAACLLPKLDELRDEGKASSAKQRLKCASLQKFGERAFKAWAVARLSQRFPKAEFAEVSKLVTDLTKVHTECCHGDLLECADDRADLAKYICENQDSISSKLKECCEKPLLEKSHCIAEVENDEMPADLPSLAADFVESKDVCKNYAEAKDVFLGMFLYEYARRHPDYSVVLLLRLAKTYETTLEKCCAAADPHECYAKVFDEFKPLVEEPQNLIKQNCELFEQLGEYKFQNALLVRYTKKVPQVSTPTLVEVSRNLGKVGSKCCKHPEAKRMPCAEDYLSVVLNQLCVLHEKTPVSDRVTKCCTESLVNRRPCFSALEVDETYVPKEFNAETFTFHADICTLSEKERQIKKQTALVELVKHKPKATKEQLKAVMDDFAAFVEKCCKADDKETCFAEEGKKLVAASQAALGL

O=c1[nH]cc(F)c(=O)[nH]1 [5-FU, 5-fluorouracil]
protein binding (plasma proteins; ref 63): 8–12%

Cc1onc(-c2c(F)cccc2Cl)c1C(=O)N[C@@H]1C(=O)N2[C@@H]1SC(C)(C)[C@@H]2C(=O)O [FLU, Flucloxacillin]
binding to plasma proteins (plasma proteins; healthy patients): 95–97% | typical unbound fraction (plasma proteins; patients with normal HSA (>42 g/L)): 3–5% | bound to plasma proteins (plasma proteins; ref 13, 17, 38): more than 95% | protein binding of FLU in other studies (plasma proteins; ref 36): 95% | protein binding of FLU in other studies (plasma proteins; ref 38): 93% | % Unb ([1]; AGP 0.9 g/L, FLU 0.2 µg/mL): 39.08% | Total conc ([1]; AGP 0.9 g/L, FLU 0.2 µg/mL): 0.261 µg/mL | Unb Conc ([1]; AGP 0.9 g/L, FLU 0.2 µg/mL): 0.1019 µg/mL | % Unb ([1]; AGP 0.9 g/L, FLU 20 µg/mL): 22.11% | Total conc ([1]; AGP 0.9 g/L, FLU 20 µg/mL): 21.060 µg/mL | Unb Conc ([1]; AGP 0.9 g/L, FLU 20 µg/mL): 4.6563 µg/mL | % Unb ([1]; AGP […], FLU 0.2 µg/mL): 32.04% | Total conc ([1]; AGP […], FLU 0.2 µg/mL): 0.266 µg/mL | Unb Conc ([1]; AGP […], FLU 0.2 µg/mL): 0.0852 µg/mL | % Unb ([1]; AGP […], FLU 20 µg/mL): 20.62% | Total conc ([1]; AGP […], FLU 20 µg/mL): 20.745 µg/mL | Unb Conc ([1]; AGP […], FLU 20 µg/mL): 4.2773 µg/mL | FLU bound % ([1]; AGPs (0.9 g/l), FLU 0.2 µg/mL): 60.92% | FLU bound % ([1]; AGPs ([…]), FLU 0.2 µg/mL): 67.96% | FLU bound % ([1]; AGPs ([…]), FLU 20 µg/mL): 79.38% | FLU bound % (HSA; Albumin (25 g/l), FLU 0.2 µg/mL): 94.91% | FLU bound % (HSA; Albumin (25 g/l), FLU 20 µg/mL): 93.49% | FLU bound % (HSA; Albumin (40 g/l), FLU 0.2 µg/mL): 94.39% | FLU bound % (HSA; Albumin (40 g/l), FLU 20 µg/mL): 93.98% | % Unb (HSA; HSA 25 g/L, FLU 0.2 µg/mL): 5.09% | Total conc (HSA; HSA 25 g/L, FLU 0.2 µg/mL): 0.232 µg/mL | Unb Conc (HSA; HSA 25 g/L, FLU 0.2 µg/mL): 0.012 µg/mL | % Unb (HSA; HSA 25 g/L, FLU 20 µg/mL): 6.51% | Total conc (HSA; HSA 25 g/L, FLU 20 µg/mL): 18.214 µg/mL | Unb Conc (HSA; HSA 25 g/L, FLU 20 µg/mL): 1.182 µg/mL | % Unb (HSA; HSA 40 g/L, FLU 0.2 µg/mL): 5.61% | Total conc (HSA; HSA 40 g/L, FLU 0.2 µg/mL): 0.197 µg/mL | Unb Conc (HSA; HSA 40 g/L, FLU 0.2 µg/mL): 0.011 µg/mL | % Unb (HSA; HSA 40 g/L, FLU 20 µg/mL): 6.02% | Total conc (HSA; HSA 40 g/L, FLU 20 µg/mL): 16.04 µg/mL | Unb Conc (HSA; HSA 40 g/L, FLU 20 µg/mL): 0.966 µg/mL | fraction unbound at 30 min (HSA; human): 0.0561 to 0.0602 | fraction unbound at 30 min, 0.2 µg/mL ([2]; %Unbound, pooled plasma, FLU 0.2 µg/mL, alone): 0.0066 | fraction unbound at 30 min, 20 µg/mL ([2]; %Unbound, pooled plasma, FLU 20 µg/mL, alone): 0.0059 | fraction unbound at 30 min ([2]; protein binding of FLU, spiked pooled plasma, 37 °C, 30 min, range over tested FLU concentrations): 0.0059 to 0.0098 | FLU bound % (human plasma proteins; FLU 0.2 µg/mL): 99.11% | FLU bound % (human plasma proteins; FLU 20 µg/mL): 98.85% | %Unbound (human plasma proteins; FLU 0.2 µg/mL): 0.7% and 0.78% | Measured Unbound Conc in Plasma (human plasma proteins; FLU 0.2 µg/mL): 0.0016 µg/mL and 0.0023 µg/mL | %Unbound (human plasma proteins; FLU 20 µg/mL): 0.98% and 0.76% and 0.73% | Measured Unbound Conc in Plasma (human plasma proteins; FLU 20 µg/mL): 0.1275 µg/mL and 0.21 µg/mL and 0.1766 µg/mL and 0.152 µg/mL | Measured Total Conc in Plasma (human plasma proteins; FLU spiked 0.2 µg/mL): 0.24 µg/mL and 0.23 µg/mL and 0.28 µg/mL | Measured Total Conc in Plasma (human plasma proteins; FLU spiked 20 µg/mL): 21.76 µg/mL and 21.18 µg/mL and 23.09 µg/mL and 20.722 µg/mL

Cc1ccc(NC(=O)c2ccc(CN3CCN(C)CC3)cc2)cc1Nc1nccc(-c2cccnc2)n1 [IMA, imatinib]
bound to human plasma proteins (plasma proteins; ref 54): 95%
